From patent US9353082B2, “Pharmaceutical compounds” (BIAL—PORTELA & CA, S.A., priority 2008, dated 2016)

Legend:
carboxylesterase (CE) = test: Carboxylesterase (CE) activity in mouse liver microsomes (LVms), p-nitrophenyl acetate; format: biochemical; settings: 10 uM compound, read 10 min after substrate, remaining CE activity
Experimental: FAAH inhibition was determined as described above. Inhibition of monoacylglycerol lipase (MAGL) and carboxylesterase (CE) was performed according to the protocols described below. The controls for both in vitro and in vivo were the reaction mix minus the test compounds. Therefore, a low value in Table 2 below for the test compounds indicates a strong inhibitor.
CE activity measurement is based on the formation of p-nitrophenol from p-nitrophenyl acetate. Briefly, in 96-well plates 8 μg/ml of rat or mouse liver microsomes (LVms) were incubated with 10 μM FAAH inhibitors for 15 min and then the substrate, p-nitrophenyl acetate, was added to a final concentration of 1 mM. The plate was read at 405 nm 10 min after substrate addition for the appearance of p-nitrophenol using a spectrophotometer. The carboxylesterase activity in microsome extracts without inhibitor added were set at 100% as control and the remaining CE activities after incubation with inhibitors were calculated relative to the control.

FAAH = target: T1, FAAH (Mus musculus, UniProt O08914); test: In vivo FAAH inhibition after oral dosing, remaining activity in brain homogenate (BRh, central nervous tissue); design: species or system NMRI mice; settings: 8 h
T1 construct: A fragment of liver, left lung lobe and brain without cerebellum were removed; from tissue; host or cells: male NMRI mice; brain (without cerebellum) and liver homogenates
T1 sequence (O08914 1-579): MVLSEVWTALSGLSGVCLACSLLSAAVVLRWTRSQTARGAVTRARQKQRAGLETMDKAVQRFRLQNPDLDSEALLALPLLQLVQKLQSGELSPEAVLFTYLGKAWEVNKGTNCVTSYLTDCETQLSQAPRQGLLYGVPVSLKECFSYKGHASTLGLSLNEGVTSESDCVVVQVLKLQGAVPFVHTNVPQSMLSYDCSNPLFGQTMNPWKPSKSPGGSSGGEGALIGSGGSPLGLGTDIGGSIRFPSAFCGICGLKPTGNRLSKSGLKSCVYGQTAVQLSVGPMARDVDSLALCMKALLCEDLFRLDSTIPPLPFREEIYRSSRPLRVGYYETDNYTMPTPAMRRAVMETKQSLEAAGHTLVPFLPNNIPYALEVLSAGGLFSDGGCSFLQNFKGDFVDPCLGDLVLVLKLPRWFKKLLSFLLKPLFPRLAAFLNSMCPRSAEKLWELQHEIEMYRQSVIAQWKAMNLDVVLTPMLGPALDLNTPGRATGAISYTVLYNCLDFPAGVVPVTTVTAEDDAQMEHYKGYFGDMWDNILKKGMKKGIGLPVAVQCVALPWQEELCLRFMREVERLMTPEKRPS
Procedure, shortened: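 Male NMRI mice, fasted overnight, got 30 or 3 mg/kg compound orally (0.5% CMC suspension or water) and were compared with vehicle controls. Brain (no cerebellum) and liver homogenates were incubated with 2 μM AEA plus 5 nM 3H-AEA at 37 °C, 10 min for brain and 7 min for liver. Remaining FAAH activity is % of vehicle after blank subtraction.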

CE Mou LVms 10 uM 10 min (carboxylesterase (CE)): 84.3 % of control
In Vivo BRh 3 mg/kg 8 h, remaining FAAH activity (FAAH; brain homogenate, 3 mg/kg): 120.6 % of control
FAAH BRh 3 mg · kg · 8 h (FAAH; in vivo, mouse brain, 3 mg/kg oral, remaining enzymatic activity): 120.6 % of control
SMILES: COc1cccc(-c2cn(C(=O)N3CCCc4ccccc43)cn2)c1 [Compound 39, (3,4-dihydroquinolin-1(2H)-yl)(4-(3-methoxyphenyl)-1H-imidazol-1-yl)methanone]
